Source: US20150209309A1, “NACA FOR THE TREATMENT OF CHRONIC OR ACUTE COGNITIVE DYSFUNCTION” (Brighton Biotech, Inc, priority 2014, published 2015)

Columns and labels:
[1] = in vivo
[2] = cited from earlier work

In the case of `CC(=O)N[C@@H](CS)C(=O)O` [NAC, N-acetyl-L-cysteine], the “crossing of the blood-brain barrier” value [1] is given as “inability to cross the blood-brain barrier” and the “membrane penetration / cell permeability” value [2] is given as “low membrane penetration”.
